The numbers were not newly measured in article PMC3103655 (Journal of natural products, 2011), which cites them from elsewhere.

Data set [1] has as its system cancer cells.
For data set [2], the system named is MOLT-4 leukemia cells. The conditions noted are these: read-out: IC50, MOLT-4 leukemia cells.
Data set [3] concerns MCF7 breast cancer cells. The conditions noted are these: read-out: IC50, MCF7 breast cancer cells.
Data set [4] deals with KB cells. The conditions noted are these: 10 μg/mL.
Data set [5] has as its system LoVo cells. The conditions noted are these: 10 μg/mL.

Turning to dolastatin 10, the “IC50 values against cancer cells” value in data set [1] is reported as “pico- to nanomolar”. For the substance hantupeptin A, the IC50 in data set [2] was 32 nM; in data set [3] it was 4000 nM. As for symplostatin 1, in data set [1], the “IC50 values against cancer cells” value was “pico- to nanomolar”. With trungapeptin A, in data set [4], the “cytotoxicity, KB cells” value was “did not display cytotoxicity”. For the same substance, in data set [5], the “cytotoxicity, LoVo cells” value is listed as “did not display cytotoxicity”.
